Key:
[1] = test system: human retinal-pigmented epithelial cells (RPECs); assay: Confluent RPEC monolayers exposed to solutions; MTT cell viability; format: cell-based
Description: (§1) As described below, the confluent monolayers of LECs, CEDCs, and RPECs grown in 96-well flat-bottom plates are exposed to varying concentrations of NaCl (an osmolyte) solution. Two hundred μl of NaCl solution (prepared as described below) are added to each well at concentrations of 137 mM, 170 mM, 340 mM, 680 mM, 1360 mM and 2000 mM NaCl, respectively. The solutions have a pH of 8.0±0.4. The concentrations of NaCl correspond to final osmolarities of about 285 to 4000 mOsm/L, respectively.
(§2) The primary and first passages of human lens epithelial cells, human corneal endothelial cells, and human retinal-pigmented epithelial cells are cultured. The LECs, the CEDCs, and the RPECs are isolated from post-mortem eyes by using standard techniques of cell isolation and enzyme digestion. See Uebersax E D, Grindstaff R D and Defoe D M Exp Eye Res. 2000 March; 70(3): 381-90; Wagner L M, Saleh S M, Boyle D J, and Takemoto D J. Mol Vis. 2002 Mar. 14; 8: 59-66; Cammarata P R, Schafer G, Chen S W, Guo Z, and Reeves R E. Invest Ophthalmol Vis Sci. 2002 February; 43(2): 425-33; Rakic J M, Galand A, and Vrensen G F. Exp Eye Res. 2000 November; 71(5): 489-94. LECs and CEDCs are cultured in Eagle's minimum essential medium (MEM). RPECs are cultured in Ham's F10 medium, supplemented with 2 mM glutamine, 25 mmol/L Hepes, pH 7.4, 10 U/mL penicillin, and 10 μg/mL streptomycin and 15% heat-inactivated foetal cow serum (FCS). The primary cultured LECs, CEDCs, and RPECs are sub-cultured at 10^4 cells/wells in 96-well flat-bottom plates until they reached 90 to 100% confluence. These cells are grown to confluence in an incubator with a humidified atmosphere of 5% CO2 at 37° C. The cells are kept in a confluent state for overnight before assays.
(§3) After treatment, the treated cells are thoroughly washed, and cultured with fresh media for twelve hours before cell viability is assessed. The capability of these cells to survive at the indicated hypertonic stress levels is assessed by an MTT assay 12-24 hours post-exposure.
(§4) MTT assay is an assay to assess mitochondria function, performed as described by Mosmann (Mosmann, T. J Immunol Methods. 1983 Dec. 16; 65(1-2): 55-63. The tetrazolium salt 3-(4,5-dimethylthiazol-2-yl)-2,5-diphenyl tetrazolium bromide (MTT; supplied by Sigma Chemical Co.) is dissolved in Phosphate's Balanced Salt (PBS) Solutions at 5 mg/ml and sterilized by passage through a 0.22 μm Millipore filter. MTT stock solution is added to growth media at a ratio of 1 to 10. Cells are incubated with this growth media for three to four hours. In cells that are alive at the time of adding MTT, mitochondrial dehydrogenase cleaves the tetrazolium ring into a dark blue formazan reaction product, which builds up in the cell. MTT-reacted cultures are observed under brightfield microscopy without further processing. Cells in each well are scored as MTT-positive if they are completely filled with reaction product (in the case of unattached cells) or contain many formazan crystals emanating from multiple foci (in the case of attached or spread cells). MTT-reacted cultures are then lysised by dimethyl sulfoxide (DMSO) and read in a Microplate Reader to obtain a measure of cell viability.
Confluent monolayers of RPECs are prepared as described in Example 1. These cells are exposed for ten minutes to 200 μl/well of the solutions comprising increasing concentrations of NaCl (137 mM, 170 mM, 340 mM, 680 mM, 1360 mM and 2000 mM) at varying pH (8.4±0.5 and 10.6±0.5). The solutions of NaCl are prepared as described in Example 1. The pH of the solutions is adjusted with additions of 1 μl and 5 μl of 5N NaOH as described Example 3.
Confluent monolayers of LECs and RPECs are prepared as described in Example 1. […]
Confluent monolayers of LECs, CEDCs and RPECs are prepared as described in Example 1. […]
To assess whether there is any side effect of this treatment on other ocular cells, confluent monolayers of LECs, CEDCs and RPECs are prepared as described in Example 1. […]

[2] = test system: human lens epithelial cells (LECs); assay: Confluent LEC monolayers exposed to solutions; MTT cell viability and microscopy; format: cell-based
Description: as §1, §2, §3, §4
Confluent monolayers of LECs are given three washes with Hank's Balanced Salt Solutions (HBSS) to remove FCS before the experiment. LECs are prepared in 96-well culture plates as in Example 1. These cells are exposed for about five to ten minutes to 200 μl/well of treatment solutions comprising increasing concentrations (˜135 mM, ˜170 mM, ˜340 mM, ˜680 mM, ˜1360 mM and ˜2000 mM) of NaCl (an osmolyte) in the presence and the absence of 30 μM frusemide (a co-transport interference agent, an ion transport mechanism interference agent). The treatment solutions have a pH of 8.0±0.4. After treatment, the treated cells are thoroughly washed, and cultured with fresh media. The viability of the treated LECs was determined by MTT assay 12-24 hours post-treatment as described in Example 1. […]

[3] = test system: human lens epithelial cells (LECs); assay: as above; format: cell-based; remark: listed apart in the source
[4] = test system: human corneal endothelial cells (CEDCs); assay: Confluent CEDC monolayers exposed to solutions; MTT cell viability; format: cell-based
Description: as §1
as §2, with “The primary cultured LECs, CEDCs, and RPECs are sub-cultured at 10^4 cells/wells in 96-well flat-bottom plates until they reached 90 to 100% confluence. These cells are grown to confluence in an incubator with a humidified atmosphere of 5% CO2 at 37° C. The cells are kept in a confluent state for overnight before assays.” left out
as §3
as §4, with “MTT-reacted cultures are observed under brightfield microscopy without further processing.” left out, “viability. […]” for “viability.”

primary cultured LECs = assay: LECs on glass cover-slip, inverted phase-contrast microscopy; format: cell-based, human; conditions: ≦200 mM NaCl, 90 μM frusemide, 3 μl of 5N NaOH
Description: Confluent monolayers of LECs are prepared as described in Example 1 and grown on a glass cover-slip instead of 96-well flat bottom culture plates. The LECs are then thoroughly washed to remove serum.
Ten milliliters (10 mL) of the treatment solution containing ≦200 mM NaCl, 90 μM frusemide and 3 μl of 5N NaOH is prepared in a deep 35 mm petri-dish.
The cover-slips are then transferred to the petri-dish containing the treatment solution and are kept in the treatment solution for five to ten minutes. The treatment solution is then poured away, and the cover-slips along with detached LECs are thoroughly rinsed with a fresh HBSS solution with slight pressure using an aspiration/irrigation probe. After immediate examination and photography using inverted phase contrast microscope, the LECs are kept in culture for seven days with fresh medium to examine whether any residual cells would survive.

[5] = 137-2000 mM NaCl, within about five to ten minutes after addition
[6] = hypertonic stress of about 1380 mM NaCl, pH 8.0±0.4, MTT 12-24 hours post-exposure
[7] = ≧200 mM NaCl, 90 μM frusemide, 3 μl of 5N NaOH, about ten minutes

Structure (SMILES): [Cl-].[Na+] [NaCl, sodium chloride]
- survival level of RPECs ([1]; 137-2000 mM NaCl, pH raised from 8.4±0.5 to 10.6±0.5, ten minutes): dramatic decrease in the survival level
- shrinkage and loss of adhesion in RPECs [1, 5]: not seen as significantly
- RPECs survive (cell viability) [1, 6]: more than eighty
- LEC shrinkage and loss of adhesion [2, 5]: began to shrink, round up and lose adhesion from the monolayer in a dose-dependent manner
- survival capability of the LECs (hypertonic shock NaCl concentration) ([2]; absence of frusemide): 200 mM
- LECs sensitivity to hypertonic stress ([3]; 170 and 340 mM NaCl, pH 8.0 to 10.6, ten minutes): increases with increasing pH and increasing NaCl concentrations
- LEC detachment and bursting ([3]; 170 or 340 mM NaCl, pH about 8.9±0.8): detach effectively from their substrates but do not burst significantly
- LECs burst and die ([3]; 170 or 340 mM NaCl, pH about 10.6±0.5, within five minutes): greater than seventy five
- LECs survive (cell viability) [3, 6]: about forty
- LECs survive ([3]; rapid hypertonic shock with 1380 mM NaCl, absence of frusemide, pH 8.0±0.4): about 40%
- shrinkage and loss of adhesion in CEDCs [4, 5]: not seen as significantly
- CEDCs survive (cell viability) [4, 6]: more than eighty

Structure (SMILES): NS(=O)(=O)c1cc(C(=O)O)c(NCc2ccco2)cc1Cl [frusemide]
- RPECs removed or killed ([1]; between 30 μM and 90 μM frusemide, ≦200 mM NaCl, 3 μl of 5N NaOH): few RPECs are removed or killed
- RPECs survived [1, 7]: eighty
- LECs shrink, are lost or die ([2]; 10 μM frusemide, ≦200 mM NaCl, 3 μl of 5N NaOH, about ten minutes): more than 50%
- LECs survive ([2]; 30 μM frusemide, rapid hypertonic shock with 340 mM NaCl, pH 8.0±0.4): almost no cells survive
- LECs removed or killed ([2]; between 30 μM and 120 μM frusemide, ≦200 mM NaCl, 3 μl of 5N NaOH): > 90%
- survival capability of the LECs (hypertonic shock NaCl concentration) ([2]; presence of 30 μM frusemide): 170 mM
- LEC appearance at five minutes post-treatment (primary cultured LECs): rounded up and separating from their substrate
- LEC appearance at ten minutes post-treatment and after washing (primary cultured LECs): substantially clear substrate
- survival rate for LECs [3, 7]: less than ten
- CEDCs survived [4, 7]: more than seventy

From patent publication US7875270B2, “Treatment solution and method for preventing posterior capsular opacification by selectively inducing detachment and/or death of lens epithelial cells” (Abbott Medical Optics Inc., priority 2002, dated 2011)
